Laboratory results published in patent publication US10815206B2, “RIP1 inhibitory compounds and methods for making and using the same” (priority 2018, dated 2020).
Read-outs that look alike come from different tables or passages of the source.

Assays:
[1] = system: TNF-alpha induced hypothermia; assay: Acute hypothermia mouse model (TNF-alpha/zVAD-FMK induced hypothermia); format: in vivo; conditions: mice, oral gavage
Protocol: In this example, an acute hypothermia mouse model assay was used to evaluate the ability of compounds disclosed herein to inhibit TNF-alpha induced hypothermia.
Female C57BL/6 mice are randomly grouped and weighed on Day −1. On the day of the study (Day 0), mice are administered vehicle or test article by oral gavage. Fifteen minutes after oral administration of test agents, each mouse is administered an intraperitoneal (IP) injection of solution containing recombinant human tumor necrosis factor alpha (TNF-α, 25.0 μg) and zVAD-FMK (200 μg). Body temperature is measured at 0 hours (before IP injections) and every hour via rectal probe temperature measuring device. Three (3) hours after IP injections of TNF-α and zVAD/FMK, mice are euthanized by CO2 asphyxiation and blood is collected via cardiac puncture. Serum and plasma are harvested for determination of cytokine and compound levels, respectively. Separate groups of mice (satellite mice) are included for the determination of compound levels in plasma at the time of administration of TNFa/zVAD-FMK.
(S)-5-benzyl-N-(5-methyl-4-oxo-2,3,4,5-tetrahydrobenzo[b][1,4]oxazepin-3-yl)-4H-1,2,4-triazole-3-carboxamide (WO 2014/125444), having a structure as illustrated below, was used as a comparative compound and was examined using a similar protocol as described by WO 2014/125444.

[2] = system: TNF-alpha induced hypothermia; conditions: dose of 30 mg/kg, according to WO 2014/125444; cited from earlier work

CN1C(=O)[C@@H](NC(=O)c2n[nH]c(Cc3ccccc3)n2)COc2ccc(C#CC(C)(C)O)cc21 [Compound I-30, (S)-5-benzyl-N-(7-(3-hydroxy-3-methylbut-1-yn-1l-yl)-5-methyl-4-oxo-2,3,4,5-tetrahydrobenzo[b][1,4]oxazepin-3-yl)-1H-1,2,4-triazole-3-carboxamide]
inhibition of TNF-alpha induced hypothermia ([1]; dose of 5 mg/kg): greater than 85%

CN1C(=O)[C@@H](NC(=O)c2nnc(Cc3ccccc3)[nH]2)COc2ccccc21 [comparative compound, (S)-5-benzyl-N-(5-methyl-4-oxo-2,3,4,5-tetrahydrobenzo[b][1,4]oxazepin-3-yl)-4H-1,2,4-triazole-3-carboxamide]
inhibition of TNF-alpha induced hypothermia [2]: 93%
inhibition of TNF-alpha induced hypothermia ([1]; 30 mg/kg, in the inventors hands): 70%
